In ChEMBL document CHEMBL1126523, “Synthesis and antiflammatory activity of some 3-heterocycle-1,2-benzisothiazoles” (1993):

Key:
Type in all cases: functional
Rattus norvegicus [1] = experiment: Tested for % inhibition in carrageenan-induced rat paw adema after intraperitoneal administration of 100 mg/kg dose at 3.5 hours; conditions: ip
Rattus norvegicus [2] = experiment: Tested for % inhibition in carrageenan-induced rat paw adema after peroral administration of 100 mg/kg dose at 2 hours; conditions: route oral
Rattus norvegicus [3] = experiment: Tested for % inhibition in carrageenan-induced rat paw adema after peroral administration of 100 mg/kg dose at 3.5 hours; conditions: route oral
Rattus norvegicus [4] = experiment: Tested for % inhibition in carrageenan-induced rat paw adema after intraperitoneal administration of 100 mg/kg dose at 2 hours; conditions: ip

Compound | inhibition in vivo at 100 mg/kg (Rattus norvegicus [1]) [%] | inhibition in vivo at 100 mg/kg (Rattus norvegicus [2]) [%] | inhibition in vivo at 100 mg/kg (Rattus norvegicus [3]) [%] | inhibition in vivo at 100 mg/kg (Rattus norvegicus [4]) [%]
c1ccc(-c2nnc(-c3nsc4ccccc34)o2)cc1 | 48 | 60 | 32 | 60
CCn1c(S)nnc1-c1nsc2ccccc12 | 50 | 57 | 32 | 64
Cc1nnc(-c2nsc3ccccc23)o1 | 42 | 43 | 21 | 69
CCNc1nnc(-c2nsc3ccccc23)o1 | 42 | 53 | 29 | 65
Clc1ccc(Nc2nnc(-c3nsc4ccccc34)o2)cc1 | 40 | 14 | 10 | 48
COc1ccc(-c2nnc(-c3nsc4ccccc34)o2)cc1 | 33 | 21 | 29 | 45
c1ccc(Nc2nnc(-c3nsc4ccccc34)o2)cc1 | 48 | 56 | 27 | 67
CNc1nnc(-c2nsc3ccccc23)o1 | 60 | 10 | 10 | 67
c1ccc(-c2nnc(-c3nsc4ccccc34)s2)cc1 | 10 | 10 | 22 | 21
Clc1ccc(-c2nnc(-c3nsc4ccccc34)o2)cc1 | 33 | 13 | 24 | 50
COc1ccc(Nc2nnc(-c3nsc4ccccc34)o2)cc1 | 50 | 28 | 33 | 59
c1ccc(Nc2nnc(-c3nsc4ccccc34)s2)cc1 | 48 | 8 | 10 | 62
CCNc1nnc(-c2nsc3ccccc23)s1 | 50 | 34 | 25 | 59
Sc1nnc(-c2nsc3ccccc23)n1-c1ccccc1 | 60 | 10 | 10 | 81
CCc1nnc(-c2nsc3ccccc23)s1 | 10 | 10 | 12 | 10
CCc1nnc(-c2nsc3ccccc23)o1 | 10 | 10 | 18 | 10
CC(C)Cc1ccc(C(C)C(=O)O)cc1 (stereo not drawn) [IBUPROFEN] | 74 | 62 | 65 | 70
